This note sets out measurements from ChEMBL document CHEMBL1201862, “PubChem BioAssay data set” (2004).

Some test systems named below: MDA-MB-435; OVCAR-8; NCI-H460; BT-549; Malme-3M; SF-539; MDA-N; U-251; NCI-H23; EKVX; 786-0; LXFL 529; CAKI-1; SK-MEL-28; SF-268; PC-3; SK-MEL-2; SN12C; HCC 2998; LOX IMVI.
Experiment in all cases: NCI anticancer screen, dose series, 48 h

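Compound exposure: 48 hours, 5 concentrations, 96-well plates. GI50 is the concentration that inhibits growth by half.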 The source made the active and inactive calls. Cut-off read from the data, not from the text of the source: active = GI50 up to about 1.1 µM and inactive = higher. Some results are limits rather than exact numbers.

Take `COC(=O)c1ccc(NCc2cc(O)ccc2O)cc1`: the GI50 in the experiment with MDA-MB-435 is 4.63 µM (inactive); in the experiment with OVCAR-8, 11.6 µM (inactive); with NCI-H460, 23.6 µM (inactive); in the experiment on BT-549, 1.04 µM (active); in the experiment on Malme-3M, 6.71 µM (inactive); in the experiment on SF-539, 5.46 µM (inactive). Besides, the GI50 in the experiment on MDA-N was 5.31 µM (inactive); with U-251 it was 9.79 µM (inactive); in the experiment with NCI-H23 it was 15.4 µM (inactive); in the experiment with EKVX, 15.6 µM (inactive); in the experiment with 786-0, 9.4 µM (inactive); in the experiment with LXFL 529, 5.06 µM (inactive). The GI50 with CAKI-1 is 21.3 µM (inactive); with SK-MEL-28, 18.9 µM (inactive); in the experiment with SF-268, 11.2 µM (inactive); with PC-3 it was 4.39 µM (inactive); with SK-MEL-2, 16 µM (inactive); with SN12C, 16.5 µM (inactive). For the same compound, the GI50 in the experiment with HCC 2998 is 14.4 µM (inactive); in the experiment on LOX IMVI it was 10.2 µM (inactive).
Consider `O=C1C=CC(=O)c2c1c1c(c3c2C2c4ccccc4C3c3ccccc32)C2c3ccccc3C1c1ccccc12`, for which the GI50 in the experiment with MDA-MB-435 is 1.75 µM (inactive); with OVCAR-8, 1.53 µM (inactive); in the experiment with NCI-H460, 13.2 µM (inactive); in the experiment on BT-549 it was 3.26 µM (inactive); in the experiment on Malme-3M it was 1.6 µM (inactive); with SF-539 it was 5.15 µM (inactive). Besides, the GI50 in the experiment with MDA-N was 1.55 µM (inactive); with U-251, 8.71 µM (inactive); in the experiment with NCI-H23, 2.72 µM (inactive); with EKVX it was 3.66 µM (inactive); in the experiment with 786-0, 1.45 µM (inactive); with LXFL 529 it was 1.08 µM (active). For the same compound, the GI50 in the experiment with CAKI-1 is 1.73 µM (inactive); with SK-MEL-28, 1.42 µM (inactive); with SF-268, 7.64 µM (inactive); in the experiment on PC-3 it was 1.74 µM (inactive); with SK-MEL-2, 1.89 µM (inactive); in the experiment on SN12C, 3.67 µM (inactive). The GI50 was 6.92 µM (inactive) in the experiment on HCC 2998 and 1.64 µM (inactive) with LOX IMVI.
In the case of `C=C1CC2OC2(C(=O)O[C@H]2CCC3[C@@H]4CCC5=CC(=O)CC[C@]5(C)C4CC[C@@]32C)C1=O` (stereo not given in full), the GI50 in the experiment with MDA-MB-435 was 12.7 µM (inactive); with OVCAR-8, 7.59 µM (inactive); with NCI-H460, 11 µM (inactive); in the experiment with BT-549, 15.3 µM (inactive); with Malme-3M, 6.56 µM (inactive); with SF-539 it was 9.33 µM (inactive). The GI50 was 8.97 µM (inactive) with U-251; 9.53 µM (inactive) in the experiment on NCI-H23; 25.5 µM (inactive) in the experiment on EKVX; 2.04 µM (inactive) in the experiment with 786-0; 2.18 µM (inactive) in the experiment with LXFL 529; 11.9 µM (inactive) in the experiment with CAKI-1. Besides, the GI50 with SK-MEL-28 is 8.87 µM (inactive); in the experiment with SF-268, 8.41 µM (inactive); in the experiment on SK-MEL-2 it was 6.07 µM (inactive); with SN12C, 6.52 µM (inactive); in the experiment on HCC 2998 it was 31.6 µM (inactive); in the experiment with LOX IMVI it was 7.94 µM (inactive).
For the compound `CC1=C(C(=O)Nc2ccccc2C)C(/C=C/c2ccccc2)C(C(=O)Nc2ccccc2C)=C(C)N1`, the GI50 is > 100 µM (inactive) with OVCAR-8; > 100 µM (inactive) in the experiment with NCI-H460; > 100 µM (inactive) with Malme-3M; > 100 µM (inactive) with SF-539; 85.1 µM (inactive) in the experiment with U-251; > 100 µM (inactive) in the experiment on NCI-H23. Besides, the GI50 in the experiment with EKVX, in the experiment on 786-0, with LXFL 529, in the experiment with CAKI-1, in the experiment on SK-MEL-28 and with SF-268 was > 100 µM (inactive) throughout. Also, the GI50 is > 100 µM (inactive) with SK-MEL-2, > 100 µM (inactive) in the experiment on SN12C, > 100 µM (inactive) with HCC 2998 and 74.8 µM (inactive) with LOX IMVI.
For `Nc1nc(CCC(=O)Nc2cccc(C(F)(F)F)c2)cc(-c2cccc3ccccc23)n1`, the GI50 with OVCAR-8, in the experiment with NCI-H460, with Malme-3M, in the experiment with SF-539, in the experiment with U-251 and in the experiment on NCI-H23 was > 100 µM (inactive) in each case. For the same compound, the GI50 in the experiment on EKVX, in the experiment on 786-0, in the experiment with LXFL 529, in the experiment on CAKI-1, with SK-MEL-28 and in the experiment with SF-268 was > 100 µM (inactive) in each case. In addition, the GI50 in the experiment on SK-MEL-2, with SN12C, with HCC 2998 and with LOX IMVI was > 100 µM (inactive) each time.
`O=C(/C=C\c1ccc(Cl)c(Cl)c1)c1ccc(Cl)cc1Cl`: the GI50 in the experiment with OVCAR-8 was 19.1 µM (inactive); in the experiment with NCI-H460, 23.3 µM (inactive); in the experiment on Malme-3M, 17.9 µM (inactive); in the experiment with SF-539 it was 20 µM (inactive); in the experiment with U-251 it was 11.9 µM (inactive); in the experiment with NCI-H23 it was 0.65 µM (active). Besides, the GI50 with EKVX is 23.4 µM (inactive); in the experiment on 786-0 it was 17.4 µM (inactive); in the experiment on LXFL 529, 2.26 µM (inactive); with CAKI-1, 27.3 µM (inactive); in the experiment with SK-MEL-28 it was > 10 µM (inactive); with SF-268, 21.6 µM (inactive). The GI50 is 19.7 µM (inactive) in the experiment with SK-MEL-2, 24.9 µM (inactive) in the experiment on SN12C, 16.7 µM (inactive) in the experiment on HCC 2998 and 5.74 µM (inactive) in the experiment with LOX IMVI.
For `C[C@H](NC(=O)n1c2ccccc2c2ccccc21)C(=O)O`, the GI50 in the experiment on OVCAR-8, in the experiment on NCI-H460, in the experiment with Malme-3M, with SF-539, in the experiment on U-251 and in the experiment with NCI-H23 was > 100 µM (inactive) throughout. In addition, the GI50 with EKVX, with 786-0, with LXFL 529, with CAKI-1, in the experiment with SK-MEL-28 and in the experiment on SF-268 was > 100 µM (inactive) throughout. Further, the GI50 in the experiment on SK-MEL-2, in the experiment with SN12C, with HCC 2998 and with LOX IMVI was > 100 µM (inactive) each time.
For `CCOC(=O)C(=O)Nc1ccccc1C(F)(F)F`, the GI50 in the experiment on OVCAR-8, in the experiment on NCI-H460, with Malme-3M, in the experiment on SF-539, with U-251 and in the experiment on NCI-H23 was > 100 µM (inactive) each time. Further, the GI50 in the experiment on EKVX, with 786-0, in the experiment with LXFL 529, with CAKI-1, with SK-MEL-28 and in the experiment with SF-268 was > 100 µM (inactive) each time. Besides, the GI50 in the experiment with SK-MEL-2, in the experiment with SN12C, in the experiment with HCC 2998 and in the experiment with LOX IMVI was > 100 µM (inactive) each time.
In the case of `CCOC(=O)C1S/C(=N\c2ccc(OC)c(OC)c2)N=C1C` (stereo not given), the GI50 was 36.6 µM (inactive) in the experiment with OVCAR-8; 43.5 µM (inactive) with NCI-H460; 37.7 µM (inactive) with Malme-3M; 53.2 µM (inactive) in the experiment with SF-539; 36.2 µM (inactive) in the experiment on U-251; 27.7 µM (inactive) in the experiment with NCI-H23. In addition, the GI50 with EKVX is 94.8 µM (inactive); in the experiment with 786-0, 29.2 µM (inactive); in the experiment with LXFL 529, 33.3 µM (inactive); in the experiment on CAKI-1, 39.3 µM (inactive); with SK-MEL-28, 30.6 µM (inactive); with SF-268 it was 33.6 µM (inactive). The GI50 is 29.8 µM (inactive) in the experiment on SK-MEL-2, 44.1 µM (inactive) in the experiment with SN12C, 51.9 µM (inactive) in the experiment with HCC 2998 and 32.5 µM (inactive) in the experiment on LOX IMVI.
Take `C=C1C(=O)O[C@H](c2ccoc2)C[C@@H]1[C@@]1(C)CCCC2(C)C(=O)OCC21` (stereo not given in full): the GI50 in the experiment on OVCAR-8, in the experiment with NCI-H460, in the experiment with Malme-3M, in the experiment with SF-539, in the experiment on U-251 and with NCI-H23 was > 100 µM (inactive) each time. The GI50 with EKVX, with 786-0, in the experiment on LXFL 529, with CAKI-1, in the experiment with SK-MEL-28 and in the experiment with SF-268 was > 100 µM (inactive) in each case. The GI50 in the experiment on SK-MEL-2, in the experiment with SN12C, in the experiment with HCC 2998 and in the experiment with LOX IMVI was > 100 µM (inactive) in each case.
